Data from patent EP4001271A1, “CRYSTALLINE FORM OF 2-CHLORO-N-CYCLOPROPYL-5-[1-[2,6-DICHLORO-4-[1,2,2,2-TETRAFLUORO-1- (TRIFLUOROMETHYL)ETHYL]PHENYL]PYRAZOL-4-YL]-N-METHYL-PYRIDINE-3-CARBOXAMIDE” (Bayer Aktiengesellschaft, priority 2020, dated 2022).
Read-outs that look alike come from different tables or passages of the source. Values belong to the compound of their own block, whether it stands above or below them.

How the values were obtained:
Format in all cases: physicochemical
[1] = Quantitative solubility in solvents, stepwise solvent addition with visual check; conditions: read-out: solubility (concentration in solvent)
Method: The solubility of the active provided in Example 1 was further investigated in various solvents (entry 1 to 14 of Table 6). For the determination of the quantitative solubility, the respective solvent(-mixture) was added to approx. 40 mg of the solid, up to a maximum solvent addition of 2 mL in 50 - 200 µL steps. The vials were sealed between each addition of the solvent and the solubility was checked visually. […] Optically clear solutions were filtered via a so-called syringe prefilter and evaporated to dryness at different temperatures. Furthermore, cooling crystallizations were carried out. Undissolved substances were stirred for one week at room temperature in the respective anti-solvent. Table 5. Selection of solvents and anti-solvents
Based on the solvents and anti-solvents from Table 5, crystallization experiments, listed in Table 6, were carried out to obtain new solid forms of the active provided in Example 1. X-ray powder diffraction was used to assess whether a new phase has been formed.

[2] = Storage experiment, influence of humidity on stability of crystalline form A (HPLC purity, XRD form)
Method: (§1) For Powder X-Ray Diffraction (XRD) the samples were placed into standard glass capillaries (∅ = 0.7 mm). The measurements were performed at room temperature with a D8 Bruker Advance Diffractometer (Cu-Kα1 = 1.5406 Å, Johansson primary beam monochromator, position sensitive detector) in transmission mode with rotation of the sample. Data were collected in a two-theta range of 2 - 38°. The tube voltage and current were 40 kV and 40 mA, respectively. [table] [table] Storage experiments in different environments (25°C, 50°C, 25°C/85 % RH) were performed to investigate the influence of temperature and moisture on the stability of crystalline form A of the compound of formula (I). […] Two samples of crystalline form A were stored at 25°C/approx. 85 % rel. humidity (see Table 8). The samples were analyzed after 0, 1, 3, and 6 months by DSC, TGA, spectroscopy, X-ray powder diffraction, and HPLC (measurements for chemical stability). […] Exemplarily, the HPLC results are disclosed in Table 8. Table 8. Influence of humidity 0, 1, 3 and 6 months. Purity determined by HPLC. ACN denotes acetonitrile. *entry 16 of Table 6

[3] = DVS water sorption study (hydrate formation); conditions: 0 to 90% RH and back in 10% increments
Method: The water sorption was determined using a DVS Resolution (London, UK) gravimetric sorption analyzer. The sample was dried at 0% relative humidity for 1000 minutes, after which the dry mass was recorded. Humidity was ramped in 10% increments to 90% RH and then back to 0% RH. The equilibrium criterion was set to a relative mass change of dm/dt=0.002%/minute.

[4] = Storage experiment, influence of temperature on stability of crystalline form A (HPLC purity, XRD form); conditions: for Purity / remaining at 672 h / remaining at 2016 h / remaining at 4032 h: HPLC, 1 mg/2mL ACN; for remaining at 672 h / remaining at 2016 h / remaining at 4032 h: solid storage
Method: as §1, with “25°C and 50°C, respectively” for “25°C/approx. 85 % rel. humidity”, “7).” for “8).”, “7.” for “8.”, “temperature after four, 12,” for “humidity 0, 1, 3”, “24 weeks.” for “6 months.”

solubility ([1]; 3-methyl-1-butanol, organic solvent or mixture, 3-methyl-1-butanol, entry 9, evaporation 50°C): 21 mg/mL
solubility ([1]; acetonitrile, organic solvent or mixture, acetonitrile, entry 14, evaporation at ambient conditions): 30 mg/mL
solubility ([1]; cyclohexane, organic solvent or mixture, cyclohexane (anti-solvent, not completely dissolved), entry 8, slurry 1 week): 19 mg/mL
solubility ([1]; ethanol, organic solvent or mixture, EtOH, entry 5, evaporation at ambient conditions): 25 mg/mL
solubility ([1]; heptane, organic solvent or mixture, heptane (anti-solvent, not completely dissolved), entry 7, slurry 1 week): 19 mg/mL
solubility ([1]; isopropyl alcohol, organic solvent or mixture, isopropyl alcohol, entry 1, clear solution, evaporation at ambient conditions): 17 mg/mL
solubility ([1]; isopropyl alcohol/propylene carbonate 65:35, organic solvent or mixture, isopropyl alcohol/propylene carbonate 65:35 %w/w, entry 3, slurry 1 week): 268 mg/mL
solubility ([1]; isopropyl alcohol/propylene carbonate 65:35, organic solvent or mixture, isopropyl alcohol/propylene carbonate 65:35 %w/w, entry 4, evaporation 50°C): 93 mg/mL
solubility ([1]; propylene carbonate, organic solvent or mixture, propylene carbonate, entry 2, slurry 1 week): 276 mg/mL
solubility ([1]; water, H2O (anti-solvent, not completely dissolved), entry 6, slurry 1 week): 19 mg/mL
Compound: CN(C(=O)c1cc(-c2cnn(-c3c(Cl)cc(C(F)(C(F)(F)F)C(F)(F)F)cc3Cl)c2)cnc1Cl)C1CC1 [compound of formula (I), 2-Chloro-N-cyclopropyl-5-[1-[2,6-dichloro-4-[1,2,2,2-tetrafluoro-1-(trifluoromethyl)ethyl]phenyl]pyrazol-4-yl]-N-methyl-pyridine-3-carboxamide]

Purity ([2]; 25 °C, 85% RH, 4 weeks, HPLC, 1 mg/2mL ACN, 40320 min, listed as 16*): 99.10%
Purity ([2]; 25 °C, 85% RH, 12 weeks, HPLC, 1 mg/2mL ACN, 120960 min, listed as 16*): 99.25%
Purity ([2]; 25 °C, 85% RH, 24 weeks, HPLC, 1 mg/2mL ACN, 241920 min, listed as 16*): 99.75%
phase transition on storage ([2]; 25°C/85 % RH, after twelve weeks): no phase transition
change in DSC, TGA, spectroscopy, X-ray powder diffraction and HPLC measurements on storage ([2]; 25°C/approx. 85 % rel. humidity, after 0, 1, 3 and 6 months): did not result in a significant change
Purity ([2]; no storage (initial value), HPLC, 1 mg/2mL ACN): 99.54%
remaining at 672 h ([2]; solid storage, 85% rh, 25 °C, 4 weeks, HPLC, 1 mg/2mL ACN): 99%
remaining at 2016 h ([2]; solid storage, 85% rh, 25 °C, 12 weeks, HPLC, 1 mg/2mL ACN): 99.3%
remaining at 4032 h ([2]; solid storage, 85% rh, 25 °C, 24 weeks, HPLC, 1 mg/2mL ACN): 99.4%
hydrate formation [3]: does not form hydrates
hygroscopicity [3]: not hygroscopic
mass increase over the entire area [3]: negligibly small
phase transition on storage ([4]; 25°C and 50°C, after twelve weeks): no phase transition
change in DSC, TGA, spectroscopy, X-ray powder diffraction and HPLC measurements on storage ([4]; 25°C and 50°C, after 0, 1, 3 and 6 months): did not result in a significant change
Purity ([4]; 25 °C, 4 weeks, 40320 min, listed as 16*): 99.09%
Purity ([4]; 25 °C, 12 weeks, 120960 min, listed as 16*): 99.23%
Purity ([4]; 50 °C, 12 weeks, 120960 min, listed as 16*): 99.25%
Purity ([4]; 50 °C, 24 weeks, 241920 min, listed as 16*): 99.34%
Purity ([4]; no storage (initial value)): 99.54%
remaining at 672 h ([4]; 25 °C, 4 weeks): 98.3%
remaining at 2016 h ([4]; 25 °C, 12 weeks): 99.3%
remaining at 4032 h ([4]; 25 °C, 24 weeks): 99.4%
remaining at 672 h ([4]; 50 °C, 4 weeks): 99.1%
remaining at 2016 h ([4]; 50 °C, 12 weeks): 99.5%
remaining at 4032 h ([4]; 50 °C, 24 weeks): 99.4%
Compound: CN(C(=O)c1cc(-c2cnn(-c3c(Cl)cc(C(F)(C(F)(F)F)C(F)(F)F)cc3Cl)c2)cnc1Cl)C1CC1 [crystalline form A, 2-chloro-N-cyclopropyl-5-[1-[2,6-dichloro-4-[1,2,2,2-tetrafluoro-1-(trifluoromethyl)ethyl]phenyl]pyrazol-4-yl]-N-methyl-pyridine-3-carboxamide]
